Laboratory results reported in ChEMBL document CHEMBL1165855, “Guaiane sesquiterpenes from seaweed Ulva fasciata Delile and their antibacterial properties” (2010).
≈ marks a conversion by molar mass, not a printed value.

Experiments:
Format in all cases: functional
Vibrio parahaemolyticus [1] = assay: Antibacterial activity against Vibrio parahaemolyticus ATCC 17809 at 50 ug/ml after 24 hrs by disc-diffusion assay; details: ATCC 17809, 24 h, read-out: DIZ
Vibrio parahaemolyticus [2] = assay: Antibacterial activity against Vibrio parahaemolyticus ATCC 17809 at 100 ug/ml after 24 hrs by disc-diffusion assay; details: ATCC 17809, 24 h, read-out: DIZ
Vibrio parahaemolyticus [3] = assay: Antibacterial activity against Vibrio parahaemolyticus ATCC 17809 at 150 ug/ml after 24 hrs by disc-diffusion assay; details: ATCC 17809, 24 h, read-out: DIZ
Vibrio parahaemolyticus [4] = assay: Antibacterial activity against Vibrio parahaemolyticus ATCC 17809 after 24 hrs by broth microdilution assay; details: ATCC 17809, 24 h
Vibrio harveyi [5] = assay: Antibacterial activity against Vibrio harveyi MTCC 3438 at 50 ug/ml after 24 hrs by disc-diffusion assay; details: MTCC 3438, 24 h, read-out: DIZ
Vibrio harveyi [6] = assay: Antibacterial activity against Vibrio harveyi MTCC 3438 at 100 ug/ml after 24 hrs by disc-diffusion assay; details: MTCC 3438, 24 h, read-out: DIZ
Vibrio harveyi [7] = assay: Antibacterial activity against Vibrio harveyi MTCC 3438 at 150 ug/ml after 24 hrs by disc-diffusion assay; details: MTCC 3438, 24 h, read-out: DIZ
Vibrio harveyi [8] = assay: Antibacterial activity against Vibrio harveyi MTCC 3438 after 24 hrs by broth microdilution assay; details: MTCC 3438, 24 h
Vibrio vulnificus [9] = assay: Antibacterial activity against Vibrio vulnificus MTCC 1145 at 50 ug/ml after 24 hrs by disc-diffusion assay; details: MTCC 1145, 24 h, read-out: DIZ
Vibrio vulnificus [10] = assay: Antibacterial activity against Vibrio vulnificus MTCC 1145 at 100 ug/ml after 24 hrs by disc-diffusion assay; details: MTCC 1145, 24 h, read-out: DIZ
Vibrio vulnificus [11] = assay: Antibacterial activity against Vibrio vulnificus MTCC 1145 at 150 ug/ml after 24 hrs by disc-diffusion assay; details: MTCC 1145, 24 h, read-out: DIZ
Vibrio vulnificus [12] = assay: Antibacterial activity against Vibrio vulnificus MTCC 1145 after 24 hrs by broth microdilution assay; details: MTCC 1145, 24 h

MIC (Vibrio harveyi [8]) [µg/mL] | MIC (Vibrio vulnificus [12]) [µg/mL] | SMILES | zone of inhibition at 50 µg/mL (Vibrio parahaemolyticus [1]) [mm] | zone of inhibition at 100 µg/mL (Vibrio parahaemolyticus [2]) [mm] | zone of inhibition at 150 µg/mL (Vibrio parahaemolyticus [3]) [mm] | MIC (Vibrio parahaemolyticus [4]) [µg/mL] | zone of inhibition at 50 µg/mL (Vibrio harveyi [5]) [mm] | zone of inhibition at 100 µg/mL (Vibrio harveyi [6]) [mm] | zone of inhibition at 150 µg/mL (Vibrio harveyi [7]) [mm] | zone of inhibition at 50 µg/mL (Vibrio vulnificus [9]) [mm] | zone of inhibition at 100 µg/mL (Vibrio vulnificus [10]) [mm] | zone of inhibition at 150 µg/mL (Vibrio vulnificus [11]) [mm]
160 (≈ 720 µM) | 125 (≈ 562 µM) | CC(C)[C@H]1CCC[C@@](C)(O)[C@H]2C=C[C@H](C)[C@@H]12 | 6.83 | 6.92 | 7.28 | 110 (≈ 495 µM) | 6.54 | 6.58 | 6.6 | 7.15 | 7.3 | 7.85
30 (≈ 113 µM) | 25 (≈ 94.6 µM) | CC[C@H]1CCC[C@@](C)(COC(C)=O)[C@H]2C=C[C@H](C)[C@@H]12 | 15.3 | 15.8 | 16.6 | 25 (≈ 94.6 µM) | 11.7 | 12.3 | 12.6 | 14.1 | 14.9 | 15.1
50 (≈ 225 µM) | 40 (≈ 180 µM) | CC[C@H]1CCC[C@@](C)(CO)[C@H]2C=C[C@H](C)[C@@H]12 | 12.7 | 12.9 | 13.2 | 35 (≈ 157 µM) | 10.6 | 11.7 | 12.9 | 11.7 | 12 | 12.4
